# Reference: patent publication US9339486B2, “Heterocyclic modulators of cannabinoid receptors” (THE CLEVELAND CLINIC FOUNDATION, priority 2008, dated 2016)
# Target: CB1 (Homo sapiens (Human), UniProt P21554)
# Assay: Radioligand competition binding, CHO-K1 membranes, [3H]SR141716A
# Protocol: Mukherjee, S., et al., Species Comparison and Pharmacological Characterization of Rat and Human CB2 Cannabinoid Receptors, Eur J Pharmacol, 2004, 505:1-9. The competition binding experiment was performed in 96 well plates (Masterblock®, Catalogue number 786201, Greiner Bio-One) containing binding buffer (50 mM Tris pH 7.4, 2.5 mM EDTA, 0.5% protease free BSA, saponine 10 μg/ml), recombinant membrane extracts (2 μg protein/well) and 1 nM [^3H] SR141716A (GE Healthcare, TRK1028, 42 Ci/mmol, diluted in binding buffer). […] The sample is incubated in a final volume of 0.1 ml for 60 min at 25° C. and then filtered on GF/C Unifilter microplate (Perkin Elmer, Catalogue number 6005177) presoaked in 0.05% Brij for 2 hrs at room temperature. Filters are washed six times with 4 ml of cold binding buffer and bound [^3H] SR141716A is determined by liquid scintillation counting. IC50 were determined by non-linear regression using one site competition equation. The inhibition constants (Ki) were calculated using the Cheng Prusoff equation (Ki=IC50/(1+(L/KD)), where L=concentration of radioligand in the assay, and KD=affinity of the radioligand for the receptor).
smiles,measurement,setting,value
"CC1(Cc2ccccc2)COc2cc(C(=O)N3CCCCC3)ccc21 (centres unmarked) [Example 3, 3-benzyl-3-methyl-2,3-dihydrobenzofuran-6-carboxylic acid-piperidine amide]",Ki,"CHO-K1 membranes, 1 nM [3H]SR141716A, read-out: Mean Ki (nM) hCB1",> 10000 nM
same,radioactive ligand displacement at hCB1 receptors,up to 10 μM,did not demonstrate detectable radioactive ligand displacement
